Reference: PubChem BioAssay (NCI)
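GI50: concentration for 50% inhibition of growth. Definition used: TGI = concentration required for complete inhibition of growth.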

Experiments:
Assay in all cases: NCI tumour cell line growth inhibition, 384-well format
786-0 renal = system: 786-0 renal
A498 renal = system: A498 renal
A549 NSCLC = system: A549 NSCLC
ACHN renal = system: ACHN renal
BT-549 breast = system: BT-549 breast
CAKI-1 renal = system: CAKI-1 renal
CCRF-CEM leukemia = system: CCRF-CEM leukemia
COLO 205 colon = system: COLO 205 colon
DU-145 prostate = system: DU-145 prostate
EKVX NSCLC = system: EKVX NSCLC
HCC-2998 colon = system: HCC-2998 colon
HCT-116 colon = system: HCT-116 colon
HCT-15 colon = system: HCT-15 colon
HL-60(TB) leukemia = system: HL-60(TB) leukemia
HOP-62 NSCLC = system: HOP-62 NSCLC
HOP-92 NSCLC = system: HOP-92 NSCLC
HS 578T breast = system: HS 578T breast
HT29 colon = system: HT29 colon
IGROV1 ovarian = system: IGROV1 ovarian
KM12 colon = system: KM12 colon
LOX IMVI melanoma = system: LOX IMVI melanoma
M14 melanoma = system: M14 melanoma
MALME-3M melanoma = system: MALME-3M melanoma
MCF7 breast = system: MCF7 breast
MDA-MB-231 breast = system: MDA-MB-231 breast
MDA-MB-435 melanoma = system: MDA-MB-435 melanoma
MDA-MB-468 breast = system: MDA-MB-468 breast
MOLT-4 leukemia = system: MOLT-4 leukemia
NCI-H226 lung = system: NCI-H226 lung
NCI-H23 lung = system: NCI-H23 lung
NCI-H322M lung = system: NCI-H322M lung
NCI-H460 NSCLC = system: NCI-H460 NSCLC
NCI-H522 lung = system: NCI-H522 lung
NCI/ADR-RES ovarian = system: NCI/ADR-RES ovarian
OVCAR-3 ovarian = system: OVCAR-3 ovarian
OVCAR-4 ovarian = system: OVCAR-4 ovarian
OVCAR-5 ovarian = system: OVCAR-5 ovarian
OVCAR-8 ovarian = system: OVCAR-8 ovarian
PC-3 prostate = system: PC-3 prostate
RPMI-8226 leukemia = system: RPMI-8226 leukemia
RXF 393 renal = system: RXF 393 renal
SF-268 CNS = system: SF-268 CNS
SF-295 CNS = system: SF-295 CNS
SF-539 CNS = system: SF-539 CNS
SK-MEL-28 melanoma = system: SK-MEL-28 melanoma
SK-MEL-5 melanoma = system: SK-MEL-5 melanoma
SK-OV-3 ovarian = system: SK-OV-3 ovarian
SN12C renal = system: SN12C renal
SNB-19 CNS = system: SNB-19 CNS
SNB-75 CNS = system: SNB-75 CNS
SR leukemia = system: SR leukemia
SW-620 colon = system: SW-620 colon
T-47D breast = system: T-47D breast
TK-10 renal = system: TK-10 renal
U251 glioblastoma = system: U251 glioblastoma
UACC-257 melanoma = system: UACC-257 melanoma
UACC-62 melanoma = system: UACC-62 melanoma
UO-31 renal = system: UO-31 renal

CS(=O)(=O)c1ccc(Oc2cc(F)cc(C#N)c2)c2c1[C@H](O)[C@H](F)[C@@H]2F
GI50 (786-0 renal): > 100 µM | TGI (786-0 renal): > 100 µM | GI50 (A498 renal): > 100 µM | TGI (A498 renal): > 100 µM | GI50 (A549 NSCLC): > 100 µM | TGI (A549 NSCLC): > 100 µM | GI50 (ACHN renal): > 100 µM | TGI (ACHN renal): > 100 µM | GI50 (BT-549 breast): > 100 µM | TGI (BT-549 breast): > 100 µM | GI50 (CAKI-1 renal): > 100 µM | TGI (CAKI-1 renal): > 100 µM | GI50 (CCRF-CEM leukemia): > 100 µM | TGI (CCRF-CEM leukemia): > 100 µM | GI50 (COLO 205 colon): > 100 µM | TGI (COLO 205 colon): > 100 µM | GI50 (DU-145 prostate): > 100 µM | TGI (DU-145 prostate): > 100 µM | GI50 (EKVX NSCLC): > 100 µM | TGI (EKVX NSCLC): > 100 µM | GI50 (HCC-2998 colon): > 100 µM | TGI (HCC-2998 colon): > 100 µM | GI50 (HCT-116 colon): > 100 µM | TGI (HCT-116 colon): > 100 µM | GI50 (HCT-15 colon): > 100 µM | TGI (HCT-15 colon): > 100 µM | GI50 (HL-60(TB) leukemia): > 100 µM | TGI (HL-60(TB) leukemia): > 100 µM | GI50 (HOP-62 NSCLC): > 100 µM | TGI (HOP-62 NSCLC): > 100 µM | GI50 (HOP-92 NSCLC): > 100 µM | TGI (HOP-92 NSCLC): > 100 µM | GI50 (HS 578T breast): > 100 µM | TGI (HS 578T breast): > 100 µM | GI50 (HT29 colon): > 100 µM | TGI (HT29 colon): > 100 µM | GI50 (IGROV1 ovarian): > 100 µM | TGI (IGROV1 ovarian): > 100 µM | GI50 (KM12 colon): > 100 µM | TGI (KM12 colon): > 100 µM | GI50 (LOX IMVI melanoma): > 100 µM | TGI (LOX IMVI melanoma): > 100 µM | GI50 (M14 melanoma): > 100 µM | TGI (M14 melanoma): > 100 µM | GI50 (MALME-3M melanoma): > 100 µM | TGI (MALME-3M melanoma): > 100 µM | GI50 (MCF7 breast): > 100 µM | TGI (MCF7 breast): > 100 µM | GI50 (MDA-MB-231 breast): > 100 µM | TGI (MDA-MB-231 breast): > 100 µM | GI50 (MDA-MB-435 melanoma): > 100 µM | TGI (MDA-MB-435 melanoma): > 100 µM | GI50 (MDA-MB-468 breast): > 100 µM | TGI (MDA-MB-468 breast): > 100 µM | GI50 (MOLT-4 leukemia): > 100 µM | TGI (MOLT-4 leukemia): > 100 µM | GI50 (NCI-H226 lung): > 100 µM | TGI (NCI-H226 lung): > 100 µM | GI50 (NCI-H23 lung): > 100 µM | TGI (NCI-H23 lung): > 100 µM | GI50 (NCI-H322M lung): > 100 µM | TGI (NCI-H322M lung): > 100 µM | GI50 (NCI-H460 NSCLC): > 100 µM | TGI (NCI-H460 NSCLC): > 100 µM | GI50 (NCI-H522 lung): > 100 µM | TGI (NCI-H522 lung): > 100 µM | GI50 (NCI/ADR-RES ovarian): > 100 µM | TGI (NCI/ADR-RES ovarian): > 100 µM | GI50 (OVCAR-3 ovarian): > 100 µM | TGI (OVCAR-3 ovarian): > 100 µM | GI50 (OVCAR-4 ovarian): > 100 µM | TGI (OVCAR-4 ovarian): > 100 µM | GI50 (OVCAR-5 ovarian): > 100 µM | TGI (OVCAR-5 ovarian): > 100 µM | GI50 (OVCAR-8 ovarian): > 100 µM | TGI (OVCAR-8 ovarian): > 100 µM | GI50 (PC-3 prostate): > 100 µM | TGI (PC-3 prostate): > 100 µM | GI50 (RPMI-8226 leukemia): > 100 µM | TGI (RPMI-8226 leukemia): > 100 µM | GI50 (RXF 393 renal): > 100 µM | TGI (RXF 393 renal): > 100 µM | GI50 (SF-268 CNS): > 100 µM | TGI (SF-268 CNS): > 100 µM | GI50 (SF-295 CNS): > 100 µM | TGI (SF-295 CNS): > 100 µM | GI50 (SF-539 CNS): > 100 µM | TGI (SF-539 CNS): > 100 µM | GI50 (SK-MEL-28 melanoma): > 100 µM | TGI (SK-MEL-28 melanoma): > 100 µM | GI50 (SK-MEL-5 melanoma): > 100 µM | TGI (SK-MEL-5 melanoma): > 100 µM | GI50 (SK-OV-3 ovarian): > 100 µM | TGI (SK-OV-3 ovarian): > 100 µM | GI50 (SN12C renal): > 100 µM | TGI (SN12C renal): > 100 µM | GI50 (SNB-19 CNS): > 100 µM | TGI (SNB-19 CNS): > 100 µM | GI50 (SNB-75 CNS): > 100 µM | TGI (SNB-75 CNS): > 100 µM | GI50 (SR leukemia): > 100 µM | TGI (SR leukemia): > 100 µM | GI50 (SW-620 colon): > 100 µM | TGI (SW-620 colon): > 100 µM | GI50 (T-47D breast): > 100 µM | TGI (T-47D breast): > 100 µM | GI50 (TK-10 renal): > 100 µM | TGI (TK-10 renal): > 100 µM | GI50 (U251 glioblastoma): > 100 µM | TGI (U251 glioblastoma): > 100 µM | GI50 (UACC-257 melanoma): > 100 µM | TGI (UACC-257 melanoma): > 100 µM | GI50 (UACC-62 melanoma): > 100 µM | TGI (UACC-62 melanoma): > 100 µM | GI50 (UO-31 renal): > 100 µM | TGI (UO-31 renal): > 100 µM
